# Data taken from patent US20250051762A1, “PLATFORM USING DNA-ENCODED SMALL MOLECULE LIBRARIES AND RNA SELECTION TO DESIGN SMALL MOLECULES THAT TARGET RNA” (University of Florida Research Foundation, Incorporated, priority 2021, published 2025).
# Legend:
# MDA-MB-231 cells [1] = experiment: Global proteomics profiling by LC-MS/MS in MDA-MB-231 cells; type: cell-based, human
# Experimental: Global proteomics profiling using LC-MS/MS: Treated cell pellets were resuspended in 1×PBS, lysed by sonication, and protein concentration was determined by using a Bradford assay (Bio-Rad). Samples (30 μg) were denatured in 6 M urea in 50 mM NH4HCO3, pH 8, reduced for 30 min with 10 mM TCEP, and alkylated for 30 min in the dark with 25 mM iodoacetamide. Samples were diluted to 2 M urea with 50 mM NH4HCO3, pH 8, and the proteins were digested with trypsin (1 μL of 0.5 μg/μL) in the presence of 1 mM CaCl2) for 12 h at 37° C. The samples were acidified by adding acetic acid to a final concentration of 5% (v/v). After desalting the samples over a self-packed C18 spin column, they were dried and analyzed by LC-MS/MS (see below). The resulting MS data were processed with MaxQuant as described below.
# LC-MS/MS analysis: Peptides were dissolved in water containing 0.1% formic acid (FA) and analyzed using an EASY-nLC 1200 nano-UHPLC connected to a Q Exactive HF-X Quadrupole-Orbitrap mass spectrometer (Thermo Scientific). A 50 cm long, 75 μm i.d. chromatography column packed with ReproSil-Pur 120 C18-AQ 2.4 μm beads (Dr. Maisch GmbH) and capped by a 5 μm tip was used. Water with 0.1% FA in water (Buffer A) and 90% acetonitrile (MeCN): 10% water with 0.1% FA (Buffer B) were used as liquid chromatography solvents. A flow rate of 300 nL/min over a 240 min linear gradient (5-35% Buffer B) at 65° C. was used to clute peptides into the mass spectrometer. Data-dependent acquisition (top-20, NCE 28, R=7,500) after full MS scan (R=60,000, m/z 400-1,300) with a dynamic exclusion of 10 seconds was performed. Peptide match to prefer and isotope exclusion were selected and enabled.
# MaxQuant analysis: The MaxQuant software (13) (V1.6.1.0) was used to analyzed the MS data and searched against the human proteome (Uniprot) and a common list of contaminants (included in MaxQuant). Peptide search tolerance was set to 20 ppm for the first search and 10 ppm for the main search while 0.02 Da was used for the fragment mass tolerance. The false discovery rate (FDR) for peptides, proteins and sites identification was set to 1%. Peptide length was set to at least 6 amino acids and peptide re-quantification was enabled. Label-free quantification (MaxLFQ) and “match between runs” were activated. Number of peptides per protein was set to ≥2. Searched modifications were methionine oxidation (variable modification) and carbamidomethylation of cysteines (fixed modification).
# TargetScan analysis: TargetScanHuman v7.2 was used to predict downstream protein targets of miR-27a-3p (n=1421), miR-23a-3p (n=1342) and miR-24-3p (n=761) containing conserved sites, all proteins with a context score≤0 were included to the analysis per TargetScan recommendation. Approximately 15% of miR-27a-3p targets (220/1421), ˜18% of miR-23a-3p targets (247/1342), and ˜16% of miR-24-3p targets (122/761) were detectable in the global proteomics analysis. […] Targets of miR-23a-3p and miR-24-3p were used as comparison as the two miRNAs are expressed at similar levels as miR-27a-3p in MDA-MB-231 cells and are located in the same cluster. P values between distributions were calculated using a two-tailed Kolmogorov-Smirnov test.
# MDA-MB-231 cells [2] = experiment: Migration assay of MDA-MB-231 cells; type: cell-based, human
# Experimental: Migration assay: MDA-MB-231 cells were grown in 60 mm diameter dishes and treated as described in “Cell culture and compound treatment” for 12 h. The medium was then removed and replaced with growth medium lacking FBS but with the same concentration of compound. After 12 h of serum starvation, the cells were detached and seeded to ThinCert™ (GBO) 24-well hanging inserts with 8 μm pores (˜5×10^4 cells per insert). Fresh growth medium with FBS was dispended in a 24-well plate (600 μL each well), and the ThinCert™ hanging inserts containing cells were then placed into the wells. After incubating for 24 h, the growth medium in the inserts was removed, and the remaining cells were washed twice with 1×DPBS. Cells were fixed by addition of 3% (w/v) paraformaldehyde (PFA) prepared in 1×DPBS at room temperature for 20 min. The PFA solution was removed, and cells were washed twice with 1×PBS. The cells were then stained with Crystal Violet (10 mg/mL; 4:1 H2O: MeOH) at room temperature for 20 min. A cotton swab was used to gently remove non-migrating cells from the top side of the filter. The remaining cells were then imaged by microscopy and counted for quantification (3 fields of view per sample).
# [3] = 100 nM, 3,127 detectable proteins, FDR <5%
# [4] = treated vs. vehicle, relative to all proteins
structure (smiles),measurement,setting,value
C#CCN(CC(N)=O)C(=O)C[C@H](Cc1c[nH]c2ccccc12)NC(=O)[C@@H]1C[C@H](NC(=O)Cn2c(=O)[nH]c3ccccc3c2=O)CN1 [Compound 9],number of proteins significantly downregulated,MDA-MB-231 cells [1]; [3],five
same,number of proteins significantly upregulated,MDA-MB-231 cells [1]; [3],15
same,upregulated proteins that are putative direct targets of miR-27a,"MDA-MB-231 cells [1]; 100 nM, of the 15 upregulated, per TargetScan",Eleven
same,cumulative distribution of fold change of miR-23a-3p targets,MDA-MB-231 cells [1]; [4],no significant change
same,cumulative distribution of fold change of miR-24-3p targets,MDA-MB-231 cells [1]; [4],no significant change
same,cumulative distribution of fold change of miR-27a-3p targets,MDA-MB-231 cells [1]; [4],significant upregulation
same,number of migrated cells,"MDA-MB-231 cells [2]; MDA-MB-231, normalized to vehicle",dose dependent reduction
same,concentration with statistically significant phenotype reduction,MDA-MB-231 cells [2]; MDA-MB-231 migration,100 nM
